Structures are written as SMILES.

One experiment deals with CDK1/cyclin E (Homo sapiens, UniProt P06493). The following applies: 1 μM; Run 1, Run 2.
A further experiment deals with ERK1 (Homo sapiens, UniProt P27361). The following applies: 1 μM; Run 1, Run 2.
Another experiment has as its target T1, IRAK4 (Homo sapiens, UniProt Q9NWZ3).
T1 sequence (Q9NWZ3 1-460): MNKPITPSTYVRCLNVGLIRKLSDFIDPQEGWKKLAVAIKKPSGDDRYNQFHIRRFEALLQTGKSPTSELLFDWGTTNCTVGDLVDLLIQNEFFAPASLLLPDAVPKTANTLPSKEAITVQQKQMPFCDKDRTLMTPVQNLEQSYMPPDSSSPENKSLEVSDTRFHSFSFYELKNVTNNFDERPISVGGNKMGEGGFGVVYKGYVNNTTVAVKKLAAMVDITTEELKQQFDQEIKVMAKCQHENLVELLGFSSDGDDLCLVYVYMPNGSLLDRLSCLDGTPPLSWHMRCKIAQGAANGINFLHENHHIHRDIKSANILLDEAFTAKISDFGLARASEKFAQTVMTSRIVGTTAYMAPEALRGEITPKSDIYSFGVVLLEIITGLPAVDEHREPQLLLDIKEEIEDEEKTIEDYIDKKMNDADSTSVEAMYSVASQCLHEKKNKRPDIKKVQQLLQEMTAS
The following applies: 1 μM; Run 1, Run 2.

For a further experiment, the target named is JNK3 (Homo sapiens, UniProt P53779). To be noted: 1 μM; Run 1, Run 2.
Sequence of JNK3 (P53779 whole entry): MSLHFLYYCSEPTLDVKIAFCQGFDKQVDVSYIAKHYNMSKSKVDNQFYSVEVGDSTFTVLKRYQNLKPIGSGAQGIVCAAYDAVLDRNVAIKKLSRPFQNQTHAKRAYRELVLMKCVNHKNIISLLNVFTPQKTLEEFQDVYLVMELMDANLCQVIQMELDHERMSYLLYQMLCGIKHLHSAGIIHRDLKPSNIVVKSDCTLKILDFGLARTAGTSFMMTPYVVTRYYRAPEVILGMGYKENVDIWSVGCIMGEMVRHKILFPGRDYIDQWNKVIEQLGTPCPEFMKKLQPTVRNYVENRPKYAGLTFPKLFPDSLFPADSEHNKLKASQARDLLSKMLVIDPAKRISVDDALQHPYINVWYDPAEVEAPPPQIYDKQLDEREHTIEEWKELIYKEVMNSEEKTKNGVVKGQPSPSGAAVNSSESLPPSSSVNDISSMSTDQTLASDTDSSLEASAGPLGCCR
The target in a further experiment is MAST3 (Homo sapiens, UniProt O60307). The following applies: 1 μM; Run 1, Run 2.
Sequence of MAST3 (O60307 whole entry): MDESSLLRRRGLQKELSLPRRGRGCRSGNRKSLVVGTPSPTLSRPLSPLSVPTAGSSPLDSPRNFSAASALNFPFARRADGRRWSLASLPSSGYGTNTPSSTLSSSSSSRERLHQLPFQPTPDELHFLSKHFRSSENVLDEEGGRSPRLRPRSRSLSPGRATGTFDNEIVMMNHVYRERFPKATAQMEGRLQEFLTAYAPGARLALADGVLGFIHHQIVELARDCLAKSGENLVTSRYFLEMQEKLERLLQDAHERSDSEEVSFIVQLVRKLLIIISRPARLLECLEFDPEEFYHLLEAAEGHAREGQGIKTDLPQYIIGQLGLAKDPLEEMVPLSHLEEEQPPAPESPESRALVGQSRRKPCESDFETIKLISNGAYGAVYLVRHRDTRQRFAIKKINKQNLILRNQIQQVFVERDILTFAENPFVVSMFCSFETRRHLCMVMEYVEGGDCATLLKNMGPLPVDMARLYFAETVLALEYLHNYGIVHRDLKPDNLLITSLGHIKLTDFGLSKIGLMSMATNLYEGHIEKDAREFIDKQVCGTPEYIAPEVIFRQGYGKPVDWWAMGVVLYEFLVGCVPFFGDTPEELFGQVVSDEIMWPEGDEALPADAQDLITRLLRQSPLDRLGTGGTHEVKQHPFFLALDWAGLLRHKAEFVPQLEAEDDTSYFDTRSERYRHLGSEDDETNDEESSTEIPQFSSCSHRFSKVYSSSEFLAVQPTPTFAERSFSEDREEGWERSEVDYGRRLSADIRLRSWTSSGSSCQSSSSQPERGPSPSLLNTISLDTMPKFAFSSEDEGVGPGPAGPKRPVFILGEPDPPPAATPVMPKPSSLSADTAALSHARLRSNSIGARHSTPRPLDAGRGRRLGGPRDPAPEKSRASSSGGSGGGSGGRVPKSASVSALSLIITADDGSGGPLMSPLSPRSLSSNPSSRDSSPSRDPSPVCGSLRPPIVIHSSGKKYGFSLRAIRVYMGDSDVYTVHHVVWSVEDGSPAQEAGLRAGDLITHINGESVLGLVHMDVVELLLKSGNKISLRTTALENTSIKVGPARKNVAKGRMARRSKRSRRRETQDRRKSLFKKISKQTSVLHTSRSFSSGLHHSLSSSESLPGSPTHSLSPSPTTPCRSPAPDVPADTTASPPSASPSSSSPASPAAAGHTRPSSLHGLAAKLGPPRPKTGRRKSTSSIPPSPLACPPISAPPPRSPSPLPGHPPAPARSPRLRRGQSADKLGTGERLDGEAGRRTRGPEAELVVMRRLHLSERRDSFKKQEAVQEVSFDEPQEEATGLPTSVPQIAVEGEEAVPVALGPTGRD
The target of another experiment is SSTK/TSSK6 (Homo sapiens, UniProt Q9BXA6). To be noted: 1 μM; Run 1, Run 2.
Sequence of SSTK/TSSK6 (Q9BXA6 whole entry): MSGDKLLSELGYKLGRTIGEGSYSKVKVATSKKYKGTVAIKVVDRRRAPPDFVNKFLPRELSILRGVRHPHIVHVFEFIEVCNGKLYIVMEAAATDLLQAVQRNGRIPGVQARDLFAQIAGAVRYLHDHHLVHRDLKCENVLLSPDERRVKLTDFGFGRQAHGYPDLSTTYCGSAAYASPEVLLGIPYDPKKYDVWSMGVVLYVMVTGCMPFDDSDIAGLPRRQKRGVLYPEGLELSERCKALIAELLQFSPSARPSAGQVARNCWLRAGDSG
A further experiment deals with T2, SNARK/NUAK2 (Homo sapiens, UniProt Q9H093).
T2 sequence (Q9H093 1-628): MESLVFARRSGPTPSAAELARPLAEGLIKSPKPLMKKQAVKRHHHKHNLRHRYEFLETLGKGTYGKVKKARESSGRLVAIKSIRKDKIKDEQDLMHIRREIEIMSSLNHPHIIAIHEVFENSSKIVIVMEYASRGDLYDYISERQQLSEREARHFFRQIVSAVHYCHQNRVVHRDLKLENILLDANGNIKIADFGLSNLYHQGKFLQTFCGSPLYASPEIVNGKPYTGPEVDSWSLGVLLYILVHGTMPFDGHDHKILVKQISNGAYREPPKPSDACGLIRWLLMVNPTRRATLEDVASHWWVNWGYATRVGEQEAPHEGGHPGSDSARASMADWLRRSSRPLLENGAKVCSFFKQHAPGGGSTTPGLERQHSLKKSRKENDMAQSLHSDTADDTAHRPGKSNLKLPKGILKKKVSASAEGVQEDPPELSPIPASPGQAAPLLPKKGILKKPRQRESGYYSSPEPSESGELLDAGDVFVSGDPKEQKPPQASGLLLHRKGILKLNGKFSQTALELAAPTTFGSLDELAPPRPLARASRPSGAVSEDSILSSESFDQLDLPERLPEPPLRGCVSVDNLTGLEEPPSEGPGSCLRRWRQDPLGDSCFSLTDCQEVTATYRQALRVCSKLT
As to the kind of experiment: biochemical. The following applies: read-out: % enzyme activity, 1 μM; Run 1, Run 2.

The target of another experiment is TLK2 (Homo sapiens, UniProt Q86UE8). As to the kind of experiment: biochemical. The following applies: read-out: % enzyme activity, 1 μM; Run 1, Run 2.
Sequence of TLK2 (Q86UE8 whole entry): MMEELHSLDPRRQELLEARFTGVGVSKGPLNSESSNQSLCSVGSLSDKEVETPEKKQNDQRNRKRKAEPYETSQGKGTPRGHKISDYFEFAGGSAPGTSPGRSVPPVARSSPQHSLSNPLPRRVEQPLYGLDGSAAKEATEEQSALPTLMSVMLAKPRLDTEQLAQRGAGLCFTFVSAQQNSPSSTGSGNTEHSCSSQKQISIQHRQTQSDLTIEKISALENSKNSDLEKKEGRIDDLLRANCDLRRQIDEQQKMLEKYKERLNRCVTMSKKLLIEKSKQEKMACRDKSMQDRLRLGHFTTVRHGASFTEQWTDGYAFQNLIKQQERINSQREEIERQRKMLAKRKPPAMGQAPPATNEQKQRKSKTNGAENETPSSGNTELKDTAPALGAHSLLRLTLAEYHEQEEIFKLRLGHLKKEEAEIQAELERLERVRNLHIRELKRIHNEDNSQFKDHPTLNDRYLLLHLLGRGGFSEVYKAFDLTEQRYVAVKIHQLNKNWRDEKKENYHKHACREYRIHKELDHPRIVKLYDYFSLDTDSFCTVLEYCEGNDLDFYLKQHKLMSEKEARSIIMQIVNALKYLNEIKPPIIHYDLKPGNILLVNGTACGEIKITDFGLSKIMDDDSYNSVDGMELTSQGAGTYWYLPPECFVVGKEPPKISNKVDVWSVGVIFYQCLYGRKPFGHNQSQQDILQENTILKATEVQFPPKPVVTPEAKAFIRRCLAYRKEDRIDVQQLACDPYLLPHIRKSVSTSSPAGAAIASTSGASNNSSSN
The target in another experiment is T3, ULK2 (Homo sapiens, UniProt Q8IYT8).
T3 sequence (Q8IYT8 1-1036): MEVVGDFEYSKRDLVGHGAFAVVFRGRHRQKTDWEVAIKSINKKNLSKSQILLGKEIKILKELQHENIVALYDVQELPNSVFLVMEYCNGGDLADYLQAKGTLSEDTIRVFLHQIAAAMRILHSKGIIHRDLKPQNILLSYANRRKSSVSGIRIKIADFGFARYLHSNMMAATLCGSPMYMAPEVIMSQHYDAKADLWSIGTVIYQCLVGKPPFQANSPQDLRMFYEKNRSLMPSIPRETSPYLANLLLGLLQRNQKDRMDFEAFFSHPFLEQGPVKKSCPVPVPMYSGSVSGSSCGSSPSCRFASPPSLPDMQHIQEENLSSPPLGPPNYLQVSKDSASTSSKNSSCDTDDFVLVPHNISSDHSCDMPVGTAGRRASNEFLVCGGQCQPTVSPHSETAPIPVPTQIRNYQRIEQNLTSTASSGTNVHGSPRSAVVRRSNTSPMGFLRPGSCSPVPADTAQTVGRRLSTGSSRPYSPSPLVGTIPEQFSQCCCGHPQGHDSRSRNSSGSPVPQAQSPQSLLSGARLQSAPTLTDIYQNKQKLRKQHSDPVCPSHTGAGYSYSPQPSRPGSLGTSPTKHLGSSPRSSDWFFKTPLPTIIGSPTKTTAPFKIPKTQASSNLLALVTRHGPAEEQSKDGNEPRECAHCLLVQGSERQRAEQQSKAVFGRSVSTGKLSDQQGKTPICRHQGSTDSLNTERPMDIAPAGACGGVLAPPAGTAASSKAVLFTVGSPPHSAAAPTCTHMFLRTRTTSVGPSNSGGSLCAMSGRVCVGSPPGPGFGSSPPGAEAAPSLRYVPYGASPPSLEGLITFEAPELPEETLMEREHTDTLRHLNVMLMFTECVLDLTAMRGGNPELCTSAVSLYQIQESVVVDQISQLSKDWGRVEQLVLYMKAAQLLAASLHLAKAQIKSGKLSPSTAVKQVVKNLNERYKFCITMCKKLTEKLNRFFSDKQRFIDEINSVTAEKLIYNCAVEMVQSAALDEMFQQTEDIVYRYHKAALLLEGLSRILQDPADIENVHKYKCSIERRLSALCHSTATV
Description: biochemical. The following applies: read-out: % enzyme activity, 1 μM; Run 1, Run 2.

Another experiment concerns the target T4, VRK1 (Homo sapiens, UniProt Q99986).
T4 sequence (Q99986 1-396): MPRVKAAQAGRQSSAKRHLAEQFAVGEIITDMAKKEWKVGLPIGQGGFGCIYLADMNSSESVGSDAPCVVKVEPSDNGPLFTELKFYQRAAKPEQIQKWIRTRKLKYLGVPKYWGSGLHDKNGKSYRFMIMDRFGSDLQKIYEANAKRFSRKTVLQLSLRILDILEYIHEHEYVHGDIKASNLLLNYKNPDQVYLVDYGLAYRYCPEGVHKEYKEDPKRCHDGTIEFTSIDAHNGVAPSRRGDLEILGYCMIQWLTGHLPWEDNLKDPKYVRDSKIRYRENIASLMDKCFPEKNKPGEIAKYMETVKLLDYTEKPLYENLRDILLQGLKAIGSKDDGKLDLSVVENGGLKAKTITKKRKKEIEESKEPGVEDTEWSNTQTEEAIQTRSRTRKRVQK
As to the kind of experiment: biochemical. The following applies: read-out: % enzyme activity, 1 μM; Run 1, Run 2.

Sequence of CDK1/cyclin E (P24864 whole entry): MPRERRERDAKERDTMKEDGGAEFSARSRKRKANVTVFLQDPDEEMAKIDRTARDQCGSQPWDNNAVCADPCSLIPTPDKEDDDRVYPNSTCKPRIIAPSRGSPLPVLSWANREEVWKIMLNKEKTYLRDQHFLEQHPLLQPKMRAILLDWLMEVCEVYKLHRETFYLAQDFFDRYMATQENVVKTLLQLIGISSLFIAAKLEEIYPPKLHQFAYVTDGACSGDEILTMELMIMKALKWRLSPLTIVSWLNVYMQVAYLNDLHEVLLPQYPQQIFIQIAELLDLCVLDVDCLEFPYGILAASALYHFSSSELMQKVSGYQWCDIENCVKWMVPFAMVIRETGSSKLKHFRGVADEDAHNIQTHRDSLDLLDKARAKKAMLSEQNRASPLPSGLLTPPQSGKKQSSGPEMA
Sequence of CDK1/cyclin E (P06493 whole entry): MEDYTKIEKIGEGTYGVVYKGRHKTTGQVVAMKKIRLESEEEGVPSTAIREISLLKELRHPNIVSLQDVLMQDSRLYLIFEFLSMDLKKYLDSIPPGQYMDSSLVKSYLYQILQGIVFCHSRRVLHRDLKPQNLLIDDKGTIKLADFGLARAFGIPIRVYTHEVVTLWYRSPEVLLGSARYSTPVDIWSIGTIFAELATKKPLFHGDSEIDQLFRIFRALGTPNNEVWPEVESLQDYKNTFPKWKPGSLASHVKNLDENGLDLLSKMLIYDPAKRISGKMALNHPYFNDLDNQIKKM
Sequence of ERK1 (P27361 whole entry): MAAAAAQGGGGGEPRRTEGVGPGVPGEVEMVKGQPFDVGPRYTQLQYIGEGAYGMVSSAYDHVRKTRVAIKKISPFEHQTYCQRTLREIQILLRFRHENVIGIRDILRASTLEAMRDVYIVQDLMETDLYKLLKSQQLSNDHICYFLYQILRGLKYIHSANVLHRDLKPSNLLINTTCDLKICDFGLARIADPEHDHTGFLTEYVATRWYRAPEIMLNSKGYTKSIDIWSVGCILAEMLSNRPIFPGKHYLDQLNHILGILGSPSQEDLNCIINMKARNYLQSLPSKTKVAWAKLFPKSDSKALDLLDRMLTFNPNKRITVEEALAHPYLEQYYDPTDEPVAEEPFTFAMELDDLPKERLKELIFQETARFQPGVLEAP

Regarding `COc1cc(-c2cncc(-c3ccc(N4CCN(C)CC4)cc3)c2C)cc(F)c1C(N)=O` [Compound 26a, 2-Fluoro-6-methoxy-4-(4-methyl-5-(4-(4-methylpiperazin-1-yl)phenyl)pyridin-3-yl)benzamide], the “% enzyme activity” value on CDK1/cyclin E was determined as 97.19%; at ERK1, 94.73%; at IRAK4 it was 82.71%; at JNK3 it was 93.66%; at MAST3, 93.52%; at SSTK/TSSK6, 107.86%. Also, the remaining activity at 1 µM on SNARK/NUAK2 was 91.6%; at TLK2 it was 96.6%; on ULK2, 73.7%; on VRK1 it was 104%.

`COc1cc(-c2cncc(-c3ccc(N4C[C@@H](C)N(C)[C@@H](C)C4)cc3)c2C)cc(F)c1C(N)=O` [Compound 26c, 2-Fluoro-6-methoxy-4-(4-methyl-5-(4-((3R,5S)-3,4,5-trimethylpiperazin-1-yl)phenyl)pyridin-3-yl)benzamide]: the “% enzyme activity” value on CDK1/cyclin E came to 91.92%; at ERK1, 94.56%; on IRAK4, 88.61%; on JNK3 it was 100.92%; at MAST3, 95.17%; on SSTK/TSSK6, 98.04%. Further, the remaining activity at 1 µM turned out to be 94% at SNARK/NUAK2, 93.3% on TLK2, 85.2% on ULK2 and 102% on VRK1.

These data come from publication PMC8213057, “Targeting ALK2: An Open Science Approach to Developing Therapeutics for the Treatment of Diffuse Intrinsic Pontine Glioma” (Journal of Medicinal Chemistry, 2020).
